Test results as given in US12343326B2, “Psychoactive medicines and their use for treating psychiatric and neurological conditions and disorders” (Transcend Therapeutics, Inc., priority 2021, dated 2025).

Key:
5HT5A = molecular target: T1, 5HT5A (Homo sapiens, UniProt P47898); test: GPCRmax screen, agonist mode; format: cell-based
T1 construct: beta-galactosidase enzyme fragment (PathHunter complementation tag); host or cells: PathHunter cell lines

[1] = system: myelin basic protein (MBP); test: Immunohistochemistry of myelin basic protein; format: in vivo, rat; conditions: 10 mg/kg IP, 24 h
Description: Immunohistochemistry: The in-life portion of the study was conducted at WuXi Apptec (Cranbury, NJ). Sectioning and staining of brains took place at Neuroscience Associates (NSA, Knoxville, TN). […] Brains were post-fixed in PFA before shipment to NSA for processing and staining. Hemisected brains were mounted, sectioned and stained using standard protocols with myelin-basic protein primary antibody (MBP SMI-99, 1:5000, Biolegend, San Diego, CA) and anti-mouse biotinylated secondary antibody (BA-2001, Vector Laboratories, Newark, CA). Slides were imaged using a Huron Digital Pathology TissueScope LE120 whole slide scanning system. 20× objective was used with a 0.4 μm/pixel resolution.

5HT2C receptor = molecular target: T2, 5HT2C receptor (Homo sapiens, UniProt P28335); test: GPCRmax screen, antagonist mode; format: cell-based
T2 construct: beta-galactosidase enzyme fragment (PathHunter complementation tag); host or cells: PathHunter cell lines
T2 sequence (P28335 33-458): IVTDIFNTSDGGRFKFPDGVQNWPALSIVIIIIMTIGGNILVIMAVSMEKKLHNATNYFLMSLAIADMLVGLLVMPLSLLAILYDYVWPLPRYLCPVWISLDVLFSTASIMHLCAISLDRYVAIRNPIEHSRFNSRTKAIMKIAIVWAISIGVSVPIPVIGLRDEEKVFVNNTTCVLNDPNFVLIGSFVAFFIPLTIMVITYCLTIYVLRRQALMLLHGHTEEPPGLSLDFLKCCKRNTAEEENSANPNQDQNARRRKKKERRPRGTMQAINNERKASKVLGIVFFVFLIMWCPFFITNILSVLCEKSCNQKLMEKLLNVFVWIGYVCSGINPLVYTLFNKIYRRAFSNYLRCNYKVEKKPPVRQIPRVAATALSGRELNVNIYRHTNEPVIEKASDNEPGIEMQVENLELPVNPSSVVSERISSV

168 GPCRs [2] = molecular target: 168 GPCRs (Homo sapiens, UniProt Q8NFJ6); test: β-arrestin based GPCR screen (PathHunter / GPCRmax), agonist mode; format: cell-based; design: host or cells: PathHunter cell lines
Description: (§1) For agonist determination, cells were incubated with sample to induce response. […] Vehicle concentration was 1%.

168 GPCRs [3] = molecular target: 168 GPCRs (Homo sapiens, UniProt P30411); test: as above; format: cell-based; design: host or cells: PathHunter cell lines; conditions: BDKRB2; Agonist; 1 uM
Description: as §1

168 GPCRs [4] = molecular target: 168 GPCRs (Homo sapiens, UniProt P08912); test: as above; format: cell-based; design: host or cells: PathHunter cell lines; conditions: CHRM5, Agonist
168 GPCRs (Homo sapiens, UniProt P08912), sequence (P08912 whole entry): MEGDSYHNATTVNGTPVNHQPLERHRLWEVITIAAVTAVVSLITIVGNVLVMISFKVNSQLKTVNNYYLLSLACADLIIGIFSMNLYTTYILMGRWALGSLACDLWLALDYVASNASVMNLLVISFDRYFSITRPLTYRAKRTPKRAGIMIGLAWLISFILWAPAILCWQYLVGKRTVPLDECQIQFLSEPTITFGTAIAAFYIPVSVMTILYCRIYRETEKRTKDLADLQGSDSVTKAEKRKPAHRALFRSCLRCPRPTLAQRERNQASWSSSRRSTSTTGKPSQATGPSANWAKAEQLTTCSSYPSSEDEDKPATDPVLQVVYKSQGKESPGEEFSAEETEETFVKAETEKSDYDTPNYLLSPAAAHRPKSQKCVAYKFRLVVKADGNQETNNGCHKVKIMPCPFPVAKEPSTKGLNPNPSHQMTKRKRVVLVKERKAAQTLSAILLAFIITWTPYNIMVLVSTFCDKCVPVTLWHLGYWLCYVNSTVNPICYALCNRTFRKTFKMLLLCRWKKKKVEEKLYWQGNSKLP
Description: as §1

168 GPCRs [5] = molecular target: 168 GPCRs (Homo sapiens, UniProt P34981); test: as above; format: cell-based; design: host or cells: PathHunter cell lines; conditions: TRHR
168 GPCRs (Homo sapiens, UniProt P34981), sequence (P34981 whole entry): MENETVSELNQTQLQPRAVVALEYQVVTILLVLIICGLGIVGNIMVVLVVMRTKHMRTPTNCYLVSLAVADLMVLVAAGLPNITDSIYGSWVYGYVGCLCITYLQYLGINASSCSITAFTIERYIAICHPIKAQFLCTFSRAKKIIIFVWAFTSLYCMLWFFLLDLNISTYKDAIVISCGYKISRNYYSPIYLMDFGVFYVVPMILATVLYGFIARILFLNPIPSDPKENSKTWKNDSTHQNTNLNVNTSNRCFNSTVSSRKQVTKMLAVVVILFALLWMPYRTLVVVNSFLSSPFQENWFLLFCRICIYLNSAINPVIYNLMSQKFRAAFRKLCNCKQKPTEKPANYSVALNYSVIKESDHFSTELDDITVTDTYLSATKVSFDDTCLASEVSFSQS
Description: as §1

168 GPCRs [6] = molecular target: 168 GPCRs (Homo sapiens, UniProt P32239); test: as above; format: cell-based; design: host or cells: PathHunter cell lines; conditions: CCKBR, Agonist
168 GPCRs (Homo sapiens, UniProt P32239), sequence (P32239 whole entry): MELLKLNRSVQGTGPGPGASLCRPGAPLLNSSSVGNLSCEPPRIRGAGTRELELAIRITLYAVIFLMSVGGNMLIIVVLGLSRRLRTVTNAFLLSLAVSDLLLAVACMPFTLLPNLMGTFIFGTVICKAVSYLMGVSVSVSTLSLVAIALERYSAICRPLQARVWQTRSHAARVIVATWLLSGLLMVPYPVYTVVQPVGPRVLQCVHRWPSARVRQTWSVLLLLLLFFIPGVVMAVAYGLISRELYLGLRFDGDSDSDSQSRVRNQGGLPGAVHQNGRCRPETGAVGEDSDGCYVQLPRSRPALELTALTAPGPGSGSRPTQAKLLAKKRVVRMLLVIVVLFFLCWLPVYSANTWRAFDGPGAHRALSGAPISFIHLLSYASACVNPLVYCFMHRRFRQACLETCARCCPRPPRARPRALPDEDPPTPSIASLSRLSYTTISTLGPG
Description: as §1

168 GPCRs [7] = molecular target: 168 GPCRs (Homo sapiens, UniProt P43220); test: as above; format: cell-based; design: host or cells: PathHunter cell lines; conditions: GLP1R
168 GPCRs (Homo sapiens, UniProt P43220), sequence (P43220 24-463): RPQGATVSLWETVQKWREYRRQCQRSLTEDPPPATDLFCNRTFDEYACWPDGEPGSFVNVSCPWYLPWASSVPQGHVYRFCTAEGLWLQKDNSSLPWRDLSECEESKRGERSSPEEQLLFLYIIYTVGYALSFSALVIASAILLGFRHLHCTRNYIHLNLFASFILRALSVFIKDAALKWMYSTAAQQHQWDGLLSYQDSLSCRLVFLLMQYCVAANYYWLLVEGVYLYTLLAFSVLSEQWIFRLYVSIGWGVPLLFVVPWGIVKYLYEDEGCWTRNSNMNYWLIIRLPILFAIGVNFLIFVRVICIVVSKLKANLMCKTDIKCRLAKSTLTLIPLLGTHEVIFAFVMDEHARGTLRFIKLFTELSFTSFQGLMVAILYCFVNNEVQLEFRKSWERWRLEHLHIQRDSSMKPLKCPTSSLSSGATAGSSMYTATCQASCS
Description: as §1

168 GPCRs [8] = molecular target: 168 GPCRs (Homo sapiens, UniProt P30989); test: as above; format: cell-based; design: host or cells: PathHunter cell lines
168 GPCRs (Homo sapiens, UniProt P30989), sequence (P30989 whole entry): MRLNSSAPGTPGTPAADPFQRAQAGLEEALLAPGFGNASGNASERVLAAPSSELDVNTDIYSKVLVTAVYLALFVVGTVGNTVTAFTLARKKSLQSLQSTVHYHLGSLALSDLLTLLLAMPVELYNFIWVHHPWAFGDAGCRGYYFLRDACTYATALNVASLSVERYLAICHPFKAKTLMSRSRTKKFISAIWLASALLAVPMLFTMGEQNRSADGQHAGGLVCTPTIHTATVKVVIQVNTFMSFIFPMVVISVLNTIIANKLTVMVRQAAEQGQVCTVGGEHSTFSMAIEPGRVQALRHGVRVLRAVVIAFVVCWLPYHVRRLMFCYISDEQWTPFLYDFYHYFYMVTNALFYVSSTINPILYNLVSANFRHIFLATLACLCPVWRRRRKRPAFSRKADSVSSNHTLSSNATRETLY
Description: as §1

168 GPCRs [9] = molecular target: 168 GPCRs (Homo sapiens, UniProt P35368); test: as above; format: cell-based; design: host or cells: PathHunter cell lines; conditions: ADRA1B, Agonist
Description: as §1

168 GPCRs [10] = molecular target: 168 GPCRs (Homo sapiens, UniProt P21918); test: as above; format: cell-based; design: host or cells: PathHunter cell lines
Description: as §1

168 GPCRs [11] = molecular target: 168 GPCRs (Homo sapiens, UniProt P22888); test: as above; format: cell-based; design: host or cells: PathHunter cell lines; conditions: LHCGR
Description: as §1

168 GPCRs [12] = molecular target: 168 GPCRs (Homo sapiens, UniProt P21917); test: as above; format: cell-based; design: host or cells: PathHunter cell lines
Description: as §1

168 GPCRs [13] = molecular target: 168 GPCRs (Homo sapiens, UniProt P43115); test: as above; format: cell-based; design: host or cells: PathHunter cell lines
168 GPCRs (Homo sapiens, UniProt P43115), sequence (P43115 whole entry): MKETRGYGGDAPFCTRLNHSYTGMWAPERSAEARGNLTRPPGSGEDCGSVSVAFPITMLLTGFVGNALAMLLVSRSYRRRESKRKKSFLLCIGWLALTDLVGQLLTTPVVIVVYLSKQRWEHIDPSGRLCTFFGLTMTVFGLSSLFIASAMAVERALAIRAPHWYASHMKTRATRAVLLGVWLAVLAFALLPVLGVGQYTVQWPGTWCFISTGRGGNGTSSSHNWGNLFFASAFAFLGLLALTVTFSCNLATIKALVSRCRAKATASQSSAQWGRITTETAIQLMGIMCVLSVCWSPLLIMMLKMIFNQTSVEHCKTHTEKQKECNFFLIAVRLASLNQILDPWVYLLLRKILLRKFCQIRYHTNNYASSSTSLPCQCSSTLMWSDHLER
Description: as §1

168 GPCRs [14] = molecular target: 168 GPCRs (Homo sapiens, UniProt P49019); test: as above; format: cell-based; design: host or cells: PathHunter cell lines; conditions: GPR109B
Description: as §1

168 GPCRs [15] = molecular target: 168 GPCRs (Homo sapiens, UniProt O95838); test: as above; format: cell-based; design: host or cells: PathHunter cell lines; conditions: GLP2R
168 GPCRs (Homo sapiens, UniProt O95838), sequence (O95838 whole entry): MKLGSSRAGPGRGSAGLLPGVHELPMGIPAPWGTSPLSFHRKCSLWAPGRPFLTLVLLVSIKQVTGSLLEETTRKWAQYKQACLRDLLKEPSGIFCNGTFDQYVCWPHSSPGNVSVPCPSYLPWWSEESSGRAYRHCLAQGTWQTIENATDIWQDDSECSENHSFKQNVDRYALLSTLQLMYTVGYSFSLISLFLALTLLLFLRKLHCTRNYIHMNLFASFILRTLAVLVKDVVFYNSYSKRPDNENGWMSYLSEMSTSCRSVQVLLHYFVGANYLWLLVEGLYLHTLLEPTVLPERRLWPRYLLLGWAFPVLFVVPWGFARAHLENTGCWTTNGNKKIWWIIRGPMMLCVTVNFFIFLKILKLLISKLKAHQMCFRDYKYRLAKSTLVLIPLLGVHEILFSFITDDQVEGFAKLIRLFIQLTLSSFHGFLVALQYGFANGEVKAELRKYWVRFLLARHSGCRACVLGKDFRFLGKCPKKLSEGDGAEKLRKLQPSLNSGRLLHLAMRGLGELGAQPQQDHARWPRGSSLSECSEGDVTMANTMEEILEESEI
Description: as §1

168 GPCRs [16] = molecular target: 168 GPCRs (Homo sapiens, UniProt P61073); test: as above; format: cell-based; design: host or cells: PathHunter cell lines
Description: as §1

168 GPCRs [17] = molecular target: 168 GPCRs (Homo sapiens, UniProt P25090); test: as above; format: cell-based; design: host or cells: PathHunter cell lines
Description: as §1

168 GPCRs [18] = molecular target: 168 GPCRs (Homo sapiens, UniProt P48146); test: as above; format: cell-based; design: host or cells: PathHunter cell lines
168 GPCRs (Homo sapiens, UniProt P48146), sequence (P48146 whole entry): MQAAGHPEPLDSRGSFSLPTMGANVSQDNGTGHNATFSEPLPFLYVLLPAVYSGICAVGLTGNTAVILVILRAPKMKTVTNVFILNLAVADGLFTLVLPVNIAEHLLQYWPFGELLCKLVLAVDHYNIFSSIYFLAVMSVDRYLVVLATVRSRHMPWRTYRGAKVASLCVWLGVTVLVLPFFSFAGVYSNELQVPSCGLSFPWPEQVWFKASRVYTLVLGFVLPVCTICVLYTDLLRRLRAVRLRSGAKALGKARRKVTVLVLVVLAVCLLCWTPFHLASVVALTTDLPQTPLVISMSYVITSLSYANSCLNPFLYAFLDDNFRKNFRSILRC
Description: as §1

[19] = system: gene expression in amygdala, frontal cortex, hippocampus; test: RNA-sequencing of brain areas after a single dose; format: in vivo, rat; conditions: 10 mg/kg IP each
5HT2A receptor = molecular target: T3, 5HT2A receptor (Homo sapiens, UniProt P28223); test: GPCRmax screen, antagonist mode; format: cell-based
T3 construct: beta-galactosidase enzyme fragment (PathHunter complementation tag); host or cells: PathHunter cell lines
T3 sequence (P28223 whole entry, the tested form may be a part): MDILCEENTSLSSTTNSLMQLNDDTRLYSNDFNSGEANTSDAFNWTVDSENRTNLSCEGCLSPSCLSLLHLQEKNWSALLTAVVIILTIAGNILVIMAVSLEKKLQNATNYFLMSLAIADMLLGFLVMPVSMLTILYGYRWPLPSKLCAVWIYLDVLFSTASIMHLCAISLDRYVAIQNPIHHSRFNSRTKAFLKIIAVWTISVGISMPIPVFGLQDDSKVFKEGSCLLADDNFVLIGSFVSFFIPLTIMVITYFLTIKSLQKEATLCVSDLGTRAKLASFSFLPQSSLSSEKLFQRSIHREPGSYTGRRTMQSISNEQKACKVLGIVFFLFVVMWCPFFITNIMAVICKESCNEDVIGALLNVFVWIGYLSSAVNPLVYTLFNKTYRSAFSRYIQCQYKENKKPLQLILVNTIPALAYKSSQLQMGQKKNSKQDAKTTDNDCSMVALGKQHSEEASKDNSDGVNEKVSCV

T1 sequence (P47898 whole entry, the tested form may be a part): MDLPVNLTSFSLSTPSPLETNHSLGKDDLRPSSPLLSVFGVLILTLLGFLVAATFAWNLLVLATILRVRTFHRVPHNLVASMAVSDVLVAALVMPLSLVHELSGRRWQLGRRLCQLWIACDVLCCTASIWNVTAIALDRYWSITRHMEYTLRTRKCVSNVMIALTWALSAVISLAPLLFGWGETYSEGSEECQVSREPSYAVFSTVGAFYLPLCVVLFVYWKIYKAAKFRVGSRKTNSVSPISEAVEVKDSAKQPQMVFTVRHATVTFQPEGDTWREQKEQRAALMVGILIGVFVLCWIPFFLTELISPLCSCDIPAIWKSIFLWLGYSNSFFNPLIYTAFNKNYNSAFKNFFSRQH

CNC(C)C(=O)c1ccc2c(c1)OCO2 (stereo not shown) [methylone, 3,4-methylenedioxy-N-methylcathinone]
agonist % activity, greatest activity detected (5HT5A; 1 or 10 mM, threshold 30%): 13.9% | activity at 10 µM (5HT5A; HTR5A, Agonist mode, 10 uM): 13.9% | activity at 1 µM (5HT5A; HTR5A, Agonist, 1 uM): 13.6% | MBP expression, basolateral nucleus of the amygdala, vs. vehicle [1]: significant reduction in MBP | MBP expression, central nucleus of the amygdala, vs. vehicle [1]: significant reduction in MBP | MBP expression, cortex (control region) [1]: No change in MBP | antagonist activity (% inhibition) (5HT2C receptor; 1 or 10 mM, threshold 50%): no agonist or antagonist activity | activity at 10 µM (5HT2C receptor; HTR2C, Antagonist mode, 10 uM): 24.2% | activity at 1 µM (5HT2C receptor; HTR2C, Antagonist, 1 uM): 21.1% | activity at 10 µM (168 GPCRs [2]; PROKR2, Agonist mode, 10 uM): -0.6% | activity at 1 µM (168 GPCRs [2]; PROKR2, Agonist, 1 uM): -0.6% | activity at 1 µM (168 GPCRs [3]): -3.6% | activity at 1 µM (168 GPCRs [4]; 1 uM): 7.2% | activity at 10 µM (168 GPCRs [4]; 10 uM): 8.7% | activity at 10 µM (168 GPCRs [5]; Agonist mode, 10 uM): -2.2% | activity at 1 µM (168 GPCRs [5]; Agonist, 1 uM): -2% | activity at 1 µM (168 GPCRs [6]; 1 uM): -1% | activity at 10 µM (168 GPCRs [6]; 10 uM): 1.5% | activity at 10 µM (168 GPCRs [7]; Agonist mode, 10 uM): -0.1% | activity at 1 µM (168 GPCRs [7]; Agonist, 1 uM): -0.3% | activity at 10 µM (168 GPCRs [8]; NTSR1, Agonist mode, 10 uM): -3.5% | activity at 1 µM (168 GPCRs [8]; NTSR1, Agonist, 1 uM): -4.7% | activity at 1 µM (168 GPCRs [9]; 1 uM): -3.3% | activity at 10 µM (168 GPCRs [9]; 10 uM): -2.9% | activity at 10 µM (168 GPCRs [10]; DRD5, Agonist mode, 10 uM): -0.2% | activity at 1 µM (168 GPCRs [10]; DRD5, Agonist, 1 uM): -0.1% | activity at 10 µM (168 GPCRs [11]; Agonist mode, 10 uM): 0.4% | activity at 1 µM (168 GPCRs [11]; Agonist, 1 uM): 0.4% | activity at 10 µM (168 GPCRs [12]; DRD4, Agonist mode, 10 uM): 9.4% | activity at 1 µM (168 GPCRs [12]; DRD4, Agonist, 1 uM): -8% | activity at 10 µM (168 GPCRs [13]; PTGER3, Agonist mode, 10 uM): 1.9% | activity at 1 µM (168 GPCRs [13]; PTGER3, Agonist, 1 uM): 4.5% | activity at 10 µM (168 GPCRs [14]; Agonist mode, 10 uM): 0.5% | activity at 1 µM (168 GPCRs [14]; Agonist, 1 uM): 1% | activity at 10 µM (168 GPCRs [15]; Agonist mode, 10 uM): -13% | activity at 1 µM (168 GPCRs [15]; Agonist, 1 uM): -1.5% | activity at 10 µM (168 GPCRs [16]; CXCR4, Agonist mode, 10 uM): 7% | activity at 1 µM (168 GPCRs [16]; CXCR4, Agonist, 1 uM): -4% | activity at 10 µM (168 GPCRs [17]; FPRL1, Agonist mode, 10 uM): 0.1% | activity at 1 µM (168 GPCRs [17]; FPRL1, Agonist, 1 uM): -0.5% | activity at 10 µM (168 GPCRs [18]; NPBWR2, Agonist mode, 10 uM): 1.35% | activity at 1 µM (168 GPCRs [18]; NPBWR2, Agonist, 1 uM): -0.3% | genes regulated by methylone that are also regulated by MDMA, amygdala [19]: 87% | antagonist activity (% inhibition) (5HT2A receptor; 1 or 10 mM, threshold 50%): no agonist or antagonist activity | activity at 10 µM (5HT2A receptor; HTR2A, Antagonist mode, 10 uM): -2.7% | activity at 1 µM (5HT2A receptor; HTR2A, Antagonist, 1 uM): -7.9%
